From patent publication US20050069498A1, “Method for identifying metabotropic glutamate receptor agonists and potentiators” (priority 2003, published 2005)

Tested on: VHipp norepinephrine (NE) release
Experiment: Ketamine challenge: norepinephrine release in ventral hippocampus by in vivo microdialysis
Settings: three ketamine doses vs vehicle control, 20 min intervals over 120 min, time course and AUC (FIG. 2, 3)

Q: What does the source list for `CNC1(c2ccccc2Cl)CCCCC1=O` (centres unmarked) [Ketamine]?
A: VHipp norepinephrine (NE) release after ketamine challenge: dose dependent increase; VHipp norepinephrine (NE) release after ketamine challenge (listed as ketamine): greater area under the curve
